The values that follow are results of earlier work, collected in EP3466413A1, “PHARMACEUTICAL COMPOSITION CONTAINING AGOMELATINE AND PROCESS FOR THE PREPARATION THEREOF” (KRKA, d.d., Novo mesto, priority 2017, dated 2019).

The conditions of data set [1]: crystalline powder.
The conditions of data set [2]: second (proton) dissociation step, aqueous solution.

≈ marks a conversion by molar mass, not a printed value. Like-named read-outs stand apart in the source and are kept apart here.

As a reminder, the solubility is how much of the substance goes into solution per volume. For the compound `COc1ccc2cccc(CCNC(C)=O)c2c1` [Agomelatine, N[2-(7-methoxy-1-naphthyl)ethyl] acetamide], the hygroscopicity entry in data set [1] is on record as “non-hygroscopic”. Under “aqueous buffers”, the “solubility in aqueous buffers” value is listed as “very slightly soluble”. Where the note is “aqueous solution over the physiological pH range”, the “solubility in aqueous solution” value is listed as “very slightly soluble”. The solubility (dichloromethane) is ~80 mg/mL (≈ 329 mM) and the solubility entry (methanol) was “approximately 500 mg/ml”. Besides, the “solubility in organic solvents” value (organic solvents such as methanol and dichloromethane) was “freely soluble”. Also, for the setting “water”, the solubility in water result was “practically insoluble”.
Consider `O=C(O)C(=O)O` [oxalic acid], for which the pKa2 in data set [2] was 4.19.
